# Experimental data from patent US9926281B2 (priority 2014, dated 2018).
# What was measured:
# human ADAMTS-5 = human ADAMTS-5 (Homo sapiens (Human), UniProt Q9UNA0); conditions: read-out: hADAMTS-5 potency IC50
# Method: Finally, the fluorescence is read on the Envision (Perkin Elmer) after an incubation of 90 min at 37° C.
# human TACE = human TACE (Homo sapiens (Human), UniProt P78536); conditions: read-out: TACE potency IC50
# human TACE, sequence (P78536 whole entry, looked up, change not shown): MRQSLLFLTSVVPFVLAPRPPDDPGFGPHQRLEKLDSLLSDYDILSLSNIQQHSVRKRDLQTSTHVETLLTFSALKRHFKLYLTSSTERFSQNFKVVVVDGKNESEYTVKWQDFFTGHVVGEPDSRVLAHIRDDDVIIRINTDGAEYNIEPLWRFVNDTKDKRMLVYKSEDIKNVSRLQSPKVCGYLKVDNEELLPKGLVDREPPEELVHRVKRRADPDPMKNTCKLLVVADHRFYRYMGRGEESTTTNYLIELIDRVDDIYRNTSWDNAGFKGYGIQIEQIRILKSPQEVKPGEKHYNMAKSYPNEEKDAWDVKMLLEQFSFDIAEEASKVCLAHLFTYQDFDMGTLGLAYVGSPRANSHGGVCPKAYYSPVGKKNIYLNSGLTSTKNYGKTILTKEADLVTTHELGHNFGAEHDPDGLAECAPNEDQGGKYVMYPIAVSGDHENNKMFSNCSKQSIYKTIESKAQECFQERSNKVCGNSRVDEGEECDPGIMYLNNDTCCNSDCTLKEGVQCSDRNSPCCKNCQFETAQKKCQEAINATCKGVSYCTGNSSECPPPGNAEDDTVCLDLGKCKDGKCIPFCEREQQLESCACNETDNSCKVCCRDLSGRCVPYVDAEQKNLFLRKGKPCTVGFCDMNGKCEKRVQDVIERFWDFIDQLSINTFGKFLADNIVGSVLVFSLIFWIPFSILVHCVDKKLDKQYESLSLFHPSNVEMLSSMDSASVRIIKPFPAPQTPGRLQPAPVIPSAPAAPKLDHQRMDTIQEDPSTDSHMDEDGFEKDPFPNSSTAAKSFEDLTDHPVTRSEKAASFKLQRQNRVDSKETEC
# human ADAMTS-5, sequence (Q9UNA0 262-930): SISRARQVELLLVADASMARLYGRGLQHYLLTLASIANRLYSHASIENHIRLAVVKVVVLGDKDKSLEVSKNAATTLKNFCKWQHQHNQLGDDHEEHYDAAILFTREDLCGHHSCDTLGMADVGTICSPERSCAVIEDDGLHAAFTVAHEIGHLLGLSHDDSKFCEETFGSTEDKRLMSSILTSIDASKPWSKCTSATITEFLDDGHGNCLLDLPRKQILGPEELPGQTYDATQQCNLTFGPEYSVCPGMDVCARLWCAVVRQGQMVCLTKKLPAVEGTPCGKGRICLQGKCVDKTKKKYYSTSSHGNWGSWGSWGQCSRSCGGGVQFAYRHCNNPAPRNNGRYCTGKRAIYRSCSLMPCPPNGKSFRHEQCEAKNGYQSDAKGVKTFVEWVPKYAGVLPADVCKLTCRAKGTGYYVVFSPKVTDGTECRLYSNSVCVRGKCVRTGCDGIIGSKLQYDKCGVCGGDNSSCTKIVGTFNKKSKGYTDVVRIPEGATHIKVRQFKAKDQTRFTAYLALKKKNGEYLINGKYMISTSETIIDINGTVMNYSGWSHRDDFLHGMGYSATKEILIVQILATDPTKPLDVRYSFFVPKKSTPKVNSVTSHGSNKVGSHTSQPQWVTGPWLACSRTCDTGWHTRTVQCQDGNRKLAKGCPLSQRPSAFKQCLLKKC
Compound,IC50 (human ADAMTS-5) [nM],IC50 (human TACE) [µM]
"Cc1noc(C)c1-c1cccc(N2CCN(C(=O)CCC3(C4CC4)NC(=O)NC3=O)C[C@@H]2C)c1 (stereo partly drawn) [compound 369, 5-cyclopropyl-5-[3-[(3S)-4-[3-(3,5-dimethylisoxazol-4-yl)phenyl]-3-methyl-piperazin-1-yl]-3-oxo-propyl]imidazolidine-2,4-dione]",1080,> 20
"CC(C)n1cc(-c2cccc(N3CCN(C(=O)CCC4(C5CC5)NC(=O)NC4=O)C[C@@H]3C)c2)cn1 (stereo partly drawn) [compound 370, 5-cyclopropyl-5-[3-[(3S)-4-[3-(1-isopropylpyrazol-4-yl)phenyl]-3-methyl-piperazin-1-yl]-3-oxo-propyl]imidazolidine-2,4-dione]",532,> 20
"C[C@H]1CN(C(=O)CCC2(C3CC3)NC(=O)NC2=O)CCN1c1cnnc(Cl)c1 (stereo partly drawn) [compound 373, 5-[3-[(3S)-4-(6-chloropyridazin-4-yl)-3-methyl-piperazin-1-yl]-3-oxo-propyl]-5-cyclopropyl-imidazolidine-2,4-dione]",1530,> 20
"C[C@H]1CN(C(=O)CCC2(C3CC3)NC(=O)NC2=O)CCN1c1ccn(C)n1 (stereo partly drawn) [compound 374, 5-cyclopropyl-5-[3-[(3S)-3-methyl-4-(1-methylpyrazol-3-yl)piperazin-1-yl]-3-oxo-propyl]imidazolidine-2,4-dione]",3080,> 20
"COC[C@]1(CC(C)C(=O)N2CCN(c3cc(F)cc(-c4cn[nH]c4)c3)[C@@H](C)C2)NC(=O)NC1=O (stereo partly drawn) [compound 376, 5-[3-[(3S)-4-[3-fluoro-5-(1H-pyrazol-4-yl)phenyl]-3-methyl-piperazin-1-yl]-2-methyl-3-oxo-propyl]-5-(methoxymethyl)imidazolidine-2,4-dione]",52,2.43
"C[C@H]1CN(C(=O)CCC2(C3CC3)NC(=O)NC2=O)CCN1c1cccc(-c2cncnc2)c1 (stereo partly drawn) [compound 377, 5-cyclopropyl-5-[3-[(3S)-3-methyl-4-(3-pyrimidin-5-ylphenyl)piperazin-1-yl]-3-oxo-propyl]imidazolidine-2,4-dione]",700,> 20
"C[C@@H](C[C@@]1(C2CC2)NC(=O)NC1=O)C(=O)N1CCN(c2ccc(F)c(-c3cn[nH]c3)c2)[C@@H](C)C1 [compound 378, 5-cyclopropyl-5-[3-[(3S)-4-[4-fluoro-3-(1H-pyrazol-4-yl)phenyl]-3-methyl-piperazin-1-yl]-2-methyl-3-oxo-propyl]imidazolidine-2,4-dione]",22,> 4
"COC[C@]1(C[C@H](C)C(=O)N2CCN(c3cccc(-c4cn[nH]c4)c3)[C@@H](C)C2)NC(=O)NC1=O [compound 380, 5-(methoxymethyl)-5-[2-methyl-3-[(3S)-3-methyl-4-[3-(1H-pyrazol-4-yl)phenyl]piperazin-1-yl]-3-oxo-propyl]imidazolidine-2,4-dione]",47,> 4
"C[C@H]1CN(C(=O)CCC2(C3CC3)NC(=O)NC2=O)CCN1c1cccc(-c2ccc(Cl)nn2)c1 (stereo partly drawn) [compound 381, 5-[3-[(3S)-4-[3-(6-chloropyridazin-3-yl)phenyl]-3-methyl-piperazin-1-yl]-3-oxo-propyl]-5-cyclopropyl-imidazolidine-2,4-dione]",1970,> 20
"C[C@H]1CN(C(=O)CCC2(c3ncccn3)NC(=O)NC2=O)CCN1c1cc(F)cc(F)c1 (stereo partly drawn) [compound 382, 5-[3-[(3S)-4-(3,5-difluorophenyl)-3-methyl-piperazin-1-yl]-3-oxo-propyl]-5-pyrimidin-2-yl-imidazolidine-2,4-dione]",39,> 20
"Cc1ccc(C2(CCC(=O)N3CCN(c4cc(F)cc(Cl)c4)[C@@H](C)C3)NC(=O)NC2=O)cn1 (stereo partly drawn) [compound 383, 5-[3-[(3S)-4-(3-chloro-5-fluoro-phenyl)-3-methyl-piperazin-1-yl]-3-oxo-propyl]-5-(6-methyl-3-pyridyl)imidazolidine-2,4-dione]",43,> 4
"Cc1ccc(C2(CCC(=O)N3CCN(c4cc(Cl)cc(Cl)c4)[C@@H](C)C3)NC(=O)NC2=O)cn1 (stereo partly drawn) [compound 384, 5-[3-[(3S)-4-(3,5-dichlorophenyl)-3-methyl-piperazin-1-yl]-3-oxo-propyl]-5-(6-methyl-3-pyridyl)imidazolidine-2,4-dione]",60,2.23
"Cc1ccc(C2(CCC(=O)N3CCN(c4cccc(F)c4)[C@@H](C)C3)NC(=O)NC2=O)cn1 (stereo partly drawn) [compound 385, 5-[3-[(3S)-4-(3-fluorophenyl)-3-methyl-piperazin-1-yl]-3-oxo-propyl]-5-(6-methyl-3-pyridyl)imidazolidine-2,4-dione]",71,> 4
"Cc1ccc(C2(CCC(=O)N3CCN(c4cc(F)cc(F)c4)[C@@H](C)C3)NC(=O)NC2=O)cn1 (stereo partly drawn) [compound 386, 5-[3-[(3S)-4-(3,5-difluorophenyl)-3-methyl-piperazin-1-yl]-3-oxo-propyl]-5-(6-methyl-3-pyridyl)imidazolidine-2,4-dione]",48,> 4
"Cc1cc(C2(CCC(=O)N3CCN(c4cc(F)cc(F)c4)[C@@H](C)C3)NC(=O)NC2=O)no1 (stereo partly drawn) [compound 387, 5-[3-[(3S)-4-(3,5-difluorophenyl)-3-methyl-piperazin-1-yl]-3-oxo-propyl]-5-(5-methylisoxazol-3-yl)imidazolidine-2,4-dione]",37,> 4
"CNc1cc(N2CCN(C(=O)CC[C@@]3(C)NC(=O)NC3=O)C[C@@H]2C)ccc1Cl [compound 392, (5R)-5-[3-[(3S)-4-[4-chloro-3-(methylamino)phenyl]-3-methyl-piperazin-1-yl]-3-oxo-propyl]-5-methyl-imidazolidine-2,4-dione]",567,> 20
"C[C@H]1CN(C(=O)CCC2(c3ccn(C)n3)NC(=O)NC2=O)CCN1c1cc(F)cc(F)c1 (stereo partly drawn) [compound 394, 5-[3-[(3S)-4-(3,5-difluorophenyl)-3-methyl-piperazin-1-yl]-3-oxo-propyl]-5-(1-methylpyrazol-3-yl)imidazolidine-2,4-dione]",49,> 20
"Cc1nc(C2(CCC(=O)N3CCN(c4cc(F)cc(F)c4)[C@@H](C)C3)NC(=O)NC2=O)co1 (stereo partly drawn) [compound 395, 5-[3-[(3S)-4-(3,5-difluorophenyl)-3-methyl-piperazin-1-yl]-3-oxo-propyl]-5-(2-methyloxazol-4-yl)imidazolidine-2,4-dione]",39,> 20
"Cc1cc(N2CCN(C(=O)CC[C@@]3(C)NC(=O)NC3=O)C[C@@H]2C)cc(C)c1Cl [compound 400, (5R)-5-[3-[(3S)-4-(4-chloro-3,5-dimethyl-phenyl)-3-methyl-piperazin-1-yl]-3-oxo-propyl]-5-methyl-imidazolidine-2,4-dione]",383,2.93
"CC(CC1NC(=O)NC1=O)C(=O)N1CCN(c2ccc(F)c(Cl)c2)[C@@H](C)C1 (stereo partly drawn) [compound 441, 5-(3-((S)-4-(3-chloro-4-fluorophenyl)-3-methylpiperazin-1-yl)-2-methyl-3-oxopropyl)imidazolidine-2,4-dione]",59,> 20
"CC(CC1(c2ccccn2)NC(=O)NC1=O)C(=O)N1CCN(c2cc(Cl)cc(Cl)c2)[C@@H](C)C1 (stereo partly drawn) [compound 442, 5-(3-((S)-4-(3,5-dichlorophenyl)-3-methylpiperazin-1-yl)-2-methyl-3-oxopropyl)-5-(pyridin-2-yl)imidazolidine-2,4-dione]",24,0.789
"CCC1(CC(C)C(=O)N2CCN(c3ccc(F)c(Cl)c3)[C@@H](C)C2)NC(=O)NC1=O (stereo partly drawn) [compound 444, 5-(3-((S)-4-(3-chloro-4-fluorophenyl)-3-methylpiperazin-1-yl)-2-methyl-3-oxopropyl)-5-ethylimidazolidine-2,4-dione]",25,> 4
"CC(CC1(c2ccccn2)NC(=O)NC1=O)C(=O)N1CCN(c2cccc(Cl)c2)[C@@H](C)C1 (stereo partly drawn) [compound 446, 5-(3-((S)-4-(3-chlorophenyl)-3-methylpiperazin-1-yl)-2-methyl-3-oxopropyl)-5-(pyridin-2-yl)imidazolidine-2,4-dione]",19,0.84
"Cc1cccc(C2(CCC(=O)N3CCN(c4ccc(F)c(Cl)c4)[C@@H](C)C3)NC(=O)NC2=O)n1 (stereo partly drawn) [compound 447, 5-[3-[(3S)-4-(3-chloro-4-fluoro-phenyl)-3-methyl-piperazin-1-yl]-3-oxo-propyl]-5-(6-methyl-2-pyridyl)imidazolidine-2,4-dione]",56,3.62
COCC1(CC(C)C(=O)N2CCN(c3cc(F)c(Cl)c(F)c3)CC2)NC(=O)NC1=O (stereo not shown) [compound 448],19,2.99
"COC(CC1(C)NC(=O)NC1=O)C(=O)N1CCN(c2ccc(F)c(Cl)c2)[C@@H](C)C1 (stereo partly drawn) [compound 450, 5-(3-((S)-4-(3-chloro-4-fluorophenyl)-3-methylpiperazin-1-yl)-2-methoxy-3-oxopropyl)-5-methylimidazolidine-2,4-dione]",58,> 20
"C[C@H]1CN(C(=O)CCC2(c3cccnc3)NC(=O)NC2=O)CCN1c1ccc(Cl)c(Cl)c1 (stereo partly drawn) [compound 453, 5-[3-[(3S)-4-(3,4-dichlorophenyl)-3-methyl-piperazin-1-yl]-3-oxo-propyl]-5-(3-pyridyl)imidazolidine-2,4-dione]",36,3.18
"Cc1cccc(C2(CCC(=O)N3CCN(c4ccc(Cl)c(F)c4)[C@@H](C)C3)NC(=O)NC2=O)n1 (stereo partly drawn) [compound 454, 5-[3-[(3S)-4-(4-chloro-3-fluoro-phenyl)-3-methyl-piperazin-1-yl]-3-oxo-propyl]-5-(6-methyl-2-pyridyl)imidazolidine-2,4-dione]",35,2.98
"Cc1cc(N2CCN(C(=O)C(C)CC3(C4CC4)NC(=O)NC3=O)C[C@@H]2C)ccc1F (stereo partly drawn) [compound 456, 5-cyclopropyl-5-(3-((S)-4-(4-fluoro-3-methylphenyl)-3-methylpiperazin-1-yl)-2-methyl-3-oxopropyl)imidazolidine-2,4-dione]",27,> 4
